Measured values as given in US20190022152A1, “MICROBIOME RESPONSE TO AGENTS” (Yeda Research and Development Co., Ltd., priority 2014, published 2019).

Legend:
[1] = system: fecal microbiota KEGG pathways; experiment: Shotgun metagenomic sequencing: KEGG pathway abundance (Table 2); format: in vivo, mice
Experimental: Illumina sequence reads were mapped to the human microbiome reference genome database of the Human Microbiome Project [www(dot)hmpdacc(dot)org/HMREFG/^32], and to a gut microbial gene catalogue^33 using GEM mapper^58 with the following parameters: • -m 3 -s 0 -q offset-33 -gem-quality-threshold 26
Microbial species abundance was measured as the fraction of reads that mapped to a single species in the database. An EM algorithm adapted from Pathoscope^59 was employed to determine the correct assignment of reads that mapped to more than one species. We considered only species for which at least 10% of the genome was covered (each coverage bin was 10,000-bp long) in at least one of the growth conditions (saccharin, water, or glucose). Reads mapped to the gut microbial gene catalogue were assigned a KEGG^34,35 ID according to the mapping available with the catalogue. Genes were subsequently mapped to KEGG pathways, and only pathways whose gene coverage was above 0.2 were included.

[2] = system: fecal matter from naïve mice; experiment: In vitro anaerobic culturing of fecal matter with saccharin; format: cell-based; conditions: anaerobic culture with saccharin 5 mgml^−1, day 9
Experimental: pooled fecal matter from naïve adult WT C57Bl/6 male mice was resuspended in 5 ml PBS in an anaerobic chamber (Coy Laboratory Products, 75% N2, 20% CO2, 5% H2), vortexed for 3 minutes and allowed to settle by gravity for 2 minutes. […] were added to a tube containing Chopped Meat Carbohydrate Broth, PR II (BD) and […] of a 5 mgml-1 saccharin solution or an equal volume of PBS. Every 3 days, 500 ml of culture were diluted to fresh medium containing saccharin or PBS. After 9 days, cultures were used for inoculation of germ-free mice.
Frozen fecal samples were processed for DNA isolation using the MoBio PowerSoil kit according to the manufacturer's instructions. […] the variable region 2 (V2) of the 16S rRNA gene were generated by using the following barcoded primers: Fwd 5′-[…]-3′ (SEQ ID NO: 3), Rev 5′-[…]-3′ (SEQ ID NO: 4). […] Reads were then processed using the QIIME (Quantitative Insights Into Microbial Ecology) analysis pipeline as described, version 1.8. Paired-end joined sequences were grouped into operational taxonomic units (OTUs) using the UCLUST algorithm and the greengenes database. Sequences with distance-based similarity of 97% or greater over median sequence length of 353 bp were assigned to the same OTU. Samples were grouped according to the treatment. […] P-values were FDR corrected for multiple hypothesis testing.

Compound: O=C1NS(=O)(=O)c2ccccc21 [saccharin]
- glycan degradation pathways abundance ([1]; GF mice transplanted with microbiomes cultured in vitro with 5 mgml^−1 saccharin vs PBS): highly enriched
- Log_fold change: 2-Oxocarboxylic acid metabolism ([1]; In vivo (week 11/week 0)): 0.10
- Log_fold change: ABC transporters ([1]; In vivo (week 11/week 0)): 0.02
- Log_fold change: Alanine, aspartate and glutamate metabolism ([1]; In vivo (week 11/week 0)): 0.02
- Log_fold change: Amino sugar and nucleotide sugar metabolism ([1]; In vivo (week 11/week 0)): 0.09
- Log_fold change: Aminoacyl-tRNA biosynthesis ([1]; In vivo (week 11/week 0)): −0.13
- Log_fold change: Aminobenzoate degradation ([1]; In vivo (week 11/week 0)): 0.04
- Log_fold change: Arginine and proline metabolism ([1]; In vivo (week 11/week 0)): 0.05
- Log_fold change: Ascorbate and aldarate metabolism ([1]; In vivo (week 11/week 0)): 0.27
- Log_fold change: Atrazine degradation ([1]; In vivo (week 11/week 0)): 0.12
- Log_fold change: Bacterial chemotaxis ([1]; In vivo (week 11/week 0)): 0.30
- Log_fold change: Bacterial secretion system ([1]; In vivo (week 11/week 0)): −0.10
- Log_fold change: Base excision repair ([1]; In vivo (week 11/week 0)): 0.03
- Log_fold change: Benzoate degradation ([1]; In vivo (week 11/week 0)): 0.00
- Log_fold change: Biosynthesis of amino acids ([1]; In vivo (week 11/week 0)): 0.03
- Log_fold change: Biosynthesis of siderophore group nonribosomal peptides ([1]; In vivo (week 11/week 0)): 0.16
- Log_fold change: Biosynthesis of unsaturated fatty acids ([1]; In vivo (week 11/week 0)): −0.07
- Log_fold change: Biotin metabolism ([1]; In vivo (week 11/week 0)): 0.13
- Log_fold change: Bisphenol degradation ([1]; In vivo (week 11/week 0)): 0.04
- Log_fold change: Butanoate metabolism ([1]; In vivo (week 11/week 0)): 0.00
- Log_fold change: CS-Branched dibasic acid metabolism ([1]; In vivo (week 11/week 0)): 0.11
- Log_fold change: Caprolactam degradation ([1]; In vivo (week 11/week 0)): 0.29
- Log_fold change: Carbon fixation in photosynthetic organisms ([1]; In vivo (week 11/week 0)): −0.13
- Log_fold change: Carbon fixation pathways in prokaryotes ([1]; In vivo (week 11/week 0)): 0.01
- Log_fold change: Carbon metabolism ([1]; In vivo (week 11/week 0)): 0.00
- Log_fold change: Cell cycle-Caulobacter ([1]; In vivo (week 11/week 0)): −0.06
- Log_fold change: Chloroalkane and chloroalkene degradation ([1]; In vivo (week 11/week 0)): −0.07
- Log_fold change: Citrate cycle (TCA cycle) ([1]; In vivo (week 11/week 0)): 0.03
- Log_fold change: Cyanoamino acid metabolism ([1]; In vivo (week 11/week 0)): 0.18
- Log_fold change: Cysteine and methionine metabolism ([1]; In vivo (week 11/week 0)): −0.02
- Log_fold change: D-Alanine metabolism ([1]; In vivo (week 11/week 0)): −0.10
- Log_fold change: D-Arginine and D-ornithine metabolism ([1]; In vivo (week 11/week 0)): −0.08
- Log_fold change: D-Glutamine and D-glutamate metabolism ([1]; In vivo (week 11/week 0)): −0.04
- Log_fold change: DDT degradation ([1]; In vivo (week 11/week 0)): −0.61
- Log_fold change: DNA replication ([1]; In vivo (week 11/week 0)): −0.06
- Log_fold change: Dioxin degradation ([1]; In vivo (week 11/week 0)): −0.34
- Log_fold change: Drug metabolism-other enzymes ([1]; In vivo (week 11/week 0)): 0.05
- Log_fold change: Ether lipid metabolism ([1]; In vivo (week 11/week 0)): 0.05
- Log_fold change: Fatty acid biosynthesis ([1]; In vivo (week 11/week 0)): 0.05
- Log_fold change: Fatty acid degradation ([1]; In vivo (week 11/week 0)): −0.03
- Log_fold change: Fatty acid metabolism ([1]; In vivo (week 11/week 0)): 0.06
- Log_fold change: Flagellar assembly ([1]; In vivo (week 11/week 0)): −0.18
- Log_fold change: Folate biosynthesis ([1]; In vivo (week 11/week 0)): 0.13
- Log_fold change: Fructose and mannose metabolism ([1]; In vivo (week 11/week 0)): 0.18
- Log_fold change: Galactose metabolism ([1]; In vivo (week 11/week 0)): 0.24
- Log_fold change: Geraniol degradation ([1]; In vivo (week 11/week 0)): 0.04
- Log_fold change: Glutathione metabolism ([1]; In vivo (week 11/week 0)): 0.12
- Log_fold change: Glycerolipid metabolism ([1]; In vivo (week 11/week 0)): 0.11
- Log_fold change: Glycerophospholipid metabolism ([1]; In vivo (week 11/week 0)): 0.06
- Log_fold change: Glycine, serine and threonine metabolism ([1]; In vivo (week 11/week 0)): 0.13
- Log_fold change: Glycolysis/Gluconeogenesis ([1]; In vivo (week 11/week 0)): −0.09
- Log_fold change: Glycosaminoglycan degradation ([1]; In vivo (week 11/week 0)): 0.34
- Log_fold change: Glycosphingolipid biosynthesis-globoseries ([1]; In vivo (week 11/week 0)): 0.33
- Log_fold change: Glyoxylate and dicarboxylate metabolism ([1]; In vivo (week 11/week 0)): 0.13
- Log_fold change: Histidine metabolism ([1]; In vivo (week 11/week 0)): 0.13
- Log_fold change: Homologous recombination ([1]; In vivo (week 11/week 0)): −0.09
- Log_fold change: Inositol phosphate metabolism ([1]; In vivo (week 11/week 0)): −0.01
- Log_fold change: Limonene and pinene degradation ([1]; In vivo (week 11/week 0)): 0.04
- Log_fold change: Lipoicacid metabolism ([1]; In vivo (week 11/week 0)): 0.36
- Log_fold change: Lipopolysaccharide biosynthesis ([1]; In vivo (week 11/week 0)): 0.21
- Log_fold change: Lysine biosynthesis ([1]; In vivo (week 11/week 0)): −0.07
- Log_fold change: Lysine degradation ([1]; In vivo (week 11/week 0)): 0.14
- Log_fold change: Methane metabolism ([1]; In vivo (week 11/week 0)): 0.02
- Log_fold change: Mismatch repair ([1]; In vivo (week 11/week 0)): −0.03
- Log_fold change: Naphthalene degradation ([1]; In vivo (week 11/week 0)): 0.04
- Log_fold change: Nicotinate and nicotinamide metabolism ([1]; In vivo (week 11/week 0)): −0.05
- Log_fold change: Nitrogen metabolism ([1]; In vivo (week 11/week 0)): 0.00
- Log_fold change: Nitrotoluene degradation ([1]; In vivo (week 11/week 0)): −0.22
- Log_fold change: Novobiocin biosynthesis ([1]; In vivo (week 11/week 0)): 0.29
- Log_fold change: Nucleotide excision repair ([1]; In vivo (week 11/week 0)): −0.08
- Log_fold change: One carbon pool by folate ([1]; In vivo (week 11/week 0)): 0.07
- Log_fold change: Other glycan degradation ([1]; In vivo (week 11/week 0)): 0.36
- Log_fold change: Oxidative phosphorylation ([1]; In vivo (week 11/week 0)): −0.03
- Log_fold change: Pantothenate and CoA biosynthesis ([1]; In vivo (week 11/week 0)): 0.04
- Log_fold change: Penicillin and cephalosporin biosynthesis ([1]; In vivo (week 11/week 0)): 0.00
- Log_fold change: Pentose and glucuronate interconversions ([1]; In vivo (week 11/week 0)): 0.31
- Log_fold change: Pentose phosphate pathway ([1]; In vivo (week 11/week 0)): 0.03
- Log_fold change: Peptidoglycan biosynthesis ([1]; In vivo (week 11/week 0)): 0.01
- Log_fold change: Phenylalanine metabolism ([1]; In vivo (week 11/week 0)): 0.30
- Log_fold change: Phenylalanine, tyrosine and tryptophan biosynthesis ([1]; In vivo (week 11/week 0)): 0.24
- Log_fold change: Phosphonate and phosphinate metabolism ([1]; In vivo (week 11/week 0)): 0.30
- Log_fold change: Phosphotransferase system (PTS) ([1]; In vivo (week 11/week 0)): −0.43
- Log_fold change: Porphyrin and chlorophyll metabolism ([1]; In vivo (week 11/week 0)): 0.23
- Log_fold change: Propanoate metabolism ([1]; In vivo (week 11/week 0)): 0.02
- Log_fold change: Protein export ([1]; In vivo (week 11/week 0)): −0.04
- Log_fold change: Proximal tubule bicarbonate reclamation ([1]; In vivo (week 11/week 0)): −0.01
- Log_fold change: Purine metabolism ([1]; In vivo (week 11/week 0)): −0.08
- Log_fold change: Pyrimidine metabolism ([1]; In vivo (week 11/week 0)): −0.08
- Log_fold change: Pyruvate metabolism ([1]; In vivo (week 11/week 0)): 0.01
- Log_fold change: RNA degradation ([1]; In vivo (week 11/week 0)): −0.05
- Log_fold change: Riboflavin metabolism ([1]; In vivo (week 11/week 0)): −0.02
- Log_fold change: Ribosome ([1]; In vivo (week 11/week 0)): −0.24
- Log_fold change: Selenocompound metabolism ([1]; In vivo (week 11/week 0)): 0.03
- Log_fold change: Sphingolipid metabolism ([1]; In vivo (week 11/week 0)): 0.34
- Log_fold change: Starch and sucrose metabolism ([1]; In vivo (week 11/week 0)): 0.19
- Log_fold change: Streptomycin biosynthesis ([1]; In vivo (week 11/week 0)): 0.10
- Log_fold change: Styrene degradation ([1]; In vivo (week 11/week 0)): −0.06
- Log_fold change: Sulfur metabolism ([1]; In vivo (week 11/week 0)): 0.19
- Log_fold change: Sulfur relay system ([1]; In vivo (week 11/week 0)): −0.03
- Log_fold change: Synthesis and degradation of ketone bodies ([1]; In vivo (week 11/week 0)): −0.35
- Log_fold change: Taurine and hypotaurine metabolism ([1]; In vivo (week 11/week 0)): 0.14
- Log_fold change: Terpenoid backbone biosynthesis ([1]; In vivo (week 11/week 0)): 0.04
- Log_fold change: Tetracycline biosynthesis ([1]; In vivo (week 11/week 0)): −0.50
- Log_fold change: Thiamine metabolism ([1]; In vivo (week 11/week 0)): −0.03
- Log_fold change: Tropane, piperidine and pyridine alkaloid biosynthesis ([1]; In vivo (week 11/week 0)): 0.27
- Log_fold change: Tryptophan metabolism ([1]; In vivo (week 11/week 0)): 0.01
- Log_fold change: Two−component system ([1]; In vivo (week 11/week 0)): 0.06
- Log_fold change: Tyrosine metabolism ([1]; In vivo (week 11/week 0)): 0.02
- Log_fold change: Ubiquinone and other terpenoid-quinone biosynthesis ([1]; In vivo (week 11/week 0)): 0.03
- Log_fold change: Valine, leucine and isoleucine biosynthesis ([1]; In vivo (week 11/week 0)): 0.10
- Log_fold change: Valine, leucine and isoleucine degradation ([1]; In vivo (week 11/week 0)): 0.06
- Log_fold change: Vibriocholerae pathogenic cycle ([1]; In vivo (week 11/week 0)): −0.01
- Log_fold change: Vitamin B6 metabolism ([1]; In vivo (week 11/week 0)): 0.16
- Log_fold change: Xylene degradation ([1]; In vivo (week 11/week 0)): −0.51
- Log_fold change: beta-Alanine metabolism ([1]; In vivo (week 11/week 0)): 0.14
- Log_fold change: beta-Lactam resistance ([1]; In vivo (week 11/week 0)): 0.11
- KEGG pathways incl. ascorbate and aldarate metabolism, lipopolysaccharide biosynthesis, bacterial chemotaxis ([1]; mice consuming HFD and pure saccharin vs water): multiple enriched pathways
- starch and sucrose, fructose and mannose metabolism, folate-, glycerolipid- and fatty acid biosynthesis pathways ([1]; microbiomes of saccharin consuming mice): enriched
- glucose transport pathways ([1]; saccharin-consuming mice): underrepresented
- glycan degradation pathways abundance ([1]; saccharin-consuming mice, week 11 vs week 0): strong increase
- Firmicutes relative abundance in stool culture ([2]; control 22%): 6%
- Bacteroidetes phyla relative abundance in stool culture ([2]; control 70%): 89%
